Read-outs that look alike come from different tables or passages of the source. Each block holds one compound with its values, some of them ahead of it.
Experiments:
[1] = tested on: carrageenan-induced acute inflammation in subcutaneous air pouch; experiment: Air Pouch Model: Combination of Montelukast (Example 5); format: in vivo, mice; conditions: MAP 1.5 mg, Mon 200 μg; for Activity score / Edema Score / Fibroblast proliferation score / IFN-γ in exudate (ELISA) / IL-6 in exudate (ELISA) / IL-10 in exudate (ELISA) / Inflammation score / Leukocyte count in exudate / Lymphocyte count in exudate / Monocyte count in exudate / Neutrophil count in exudate / Sum (of histology scores) / TNF-α in exudate (ELISA): dexamethasone 200 μg; for Exudate volume / Pouch Wall Weight: doses/mouse: dexamethasone 200 μg
burn wounds = experiment: Burn Injury Model (Example 3); format: in vivo, Sprague-Dawley rats; conditions: per wound: dexamethasone 0.4 mg, MAP 0.25 mg, montelukast 0.25 mg, once daily topically
Protocol: Healthy adult male Sprague-Dawley rats weighing between 200 and 300 g were supplied by Beijing Vital River Laboratory Animal Technology Co. Ltd, Beijing, China.
Prior to any experiments being conducted, rats were housed under standardized conditions (at a constant temperature or 22 t 2° C., with alternating 12 hour periods of light and darkness) and were fed on a standard rat diet with water.
Rats were anaesthetised with 3% chloral hydrate (Sinopharm Chemical Reagent Co., Ltd., Shanghai, China) (1 mL/100 g of body weight) administered by intraperitoneal injection. The dorsal trunk was of each rat was shaved with an electric razor and surgically prepared with 70% alcohol scrubs. A constant temperature and constant pressure scald instrument (YLS-5Q, Shandong Academy of Medical Sciences, China) was employed, as this allows for a precise measurement of pressure applied to the skin surface. Thermal injury was induced by heating a stylus (with a surface area of 4 cm^2) to 80° C. and applying the stylus to the surface of the skin for a contact time of 18 seconds. 500 grams of pressure was applied during the operation. In this way, four two-degree shallow to deep burn wounds were created on each rat. Test compounds or vehicle were applied to the surface of the wound.
Rats were kept in separate cages but were allowed to move freely throughout the test period. In the first treatment, 500 μL of the relevant solutions was applied about 3 to 4 hours after the surgery (Day 0) and then once daily for the next 7 days. Gross appearances of the scald wounds were observed every day. Photographs were taken at 48 hours (Day 2), and on the 4th (Day 4) and 7th (Day 7) days with a digital camera to compare wound healing. The skin lesions were evaluated for the following criteria: blistering, swelling, redness, crust, bleeding, secretion, granulation tissue and scar tissue. The degree of healing was expressed as the wound contraction ratio (WCR): WCR=(A0−At)/A0×100% in which A0 and At refer to the initial area and the wound area at time t, respectively.
On Days 2, 4 and 7 after application of the burn, two rats were sacrificed and the burned skins excised. The freshly isolated skin was fixed in 10% neutral buffered formalin (which contained 4% of formaldehyde). This was used for histological embedding, staining and immunohistochemical studies.
Administered solutions were made up substantially as described in Example 1 above.
Burn scores are shown in Table 12 below and are illustrated in FIG. 3. Skin samples were sent to the Department of Pathology of Nanjing Hospital of Chinese Medicine, China. Samples were fixed and embedded, and histological sections were cut and stained. The stained sections were examined under a light microscope and pictures were taken. All pictures were interpreted and scored according to the following criteria: first degree—the epidermis was damaged and the substrate remains intact (score 1 point); superficial second degree—the epidermis was completely damaged and the papillary layer was damaged (1.5 points): deep second degree—the dermis was injured into the reticular layer and retain some dermis (2.5 points); and third degree—the dermis was completely damaged and the muscles and/or bones affected (3 points).

[2] = tested on: full thickness skin wounds in diabetic mice; experiment: Diabetic Wound Model (Example 7); format: in vivo, db/db mice (C57BL/KsJ-db/db); conditions: Day 6, Mon 100 μg/each
Protocol: A similar experiment with essentially the same protocol to that described in Example 6 above was carried out on 8 to 12 week-old male db/db mice (C57BL/KsJ-db/db, with a body weight of 35-45 g/mouse; supplied by Changzhou Cvens Experimental Animal Co. Ltd.).
An EMS skin biopsy punch with a […] diameter was used to make wounds.
Different drugs were administrated topically at 20 μL/wound, once daily from Day 0 to Day 18. The model group was given same amount of normal saline.
Samples were taken on Day 6, Day 12 and Day 18 post-wound inflictions.
Histological specimens were analyzed and skin regeneration, fibroblast proliferation, collagen regeneration scores (Masson score) and inflammation scores were estimated as follows.
The HE and Masson stained slices were observed under an optical microscope and were scored (1, 2 or 3 points) according to the following criteria. […]
Fibroblast proliferation was scored as the following criteria:
Inflammation was scored as the following criteria:
Collagen deposition score criterion for the Masson stained sample were as follows. […] No clear blue staining was given 0 points; blue fiber appearing in a scattered pattern was scored as 1 points; if more blue fiber appeared, this was scored as 2 points, and a diffuse blue colour was given 3 points.

[3] = for Montelukast amount in skin sample: unscalded intact skin
[4] = pH and stability of montelukast formulations; conditions: PEG-based creams or ointments; not prone to oxidation

SMILES: C[C@@H]1C[C@H]2[C@@H]3CCC4=CC(=O)C=C[C@]4(C)[C@@]3(F)[C@@H](O)C[C@]2(C)[C@@]1(O)C(=O)CO [Dexamethasone, dexamethasone]
- Activity score [1]: 0.83
- Edema Score [1]: 1.67
- Fibroblast proliferation score [1]: 0.00
- IFN-γ in exudate (ELISA) [1]: 2879 ± 1267
- IL-6 in exudate (ELISA) [1]: 3649 ± 1764
- IL-10 in exudate (ELISA) [1]: 52.33 ± 11.60
- Inflammation score [1]: 1.50
- Leukocyte count in exudate [1]: 2.48e+06 mL⁻¹
- Lymphocyte count in exudate [1]: 2.08e+06 mL⁻¹
- Monocyte count in exudate [1]: 50000 mL⁻¹
- Neutrophil count in exudate [1]: 220000 mL⁻¹
- Sum (of histology scores) [1]: 4.00
- TNF-α in exudate (ELISA) [1]: 71.31 ± 111.19
- Exudate volume [1]: 3.60 ± 0.14 mL
- Pouch Wall Weight [1]: 0.72 ± 0.09 g
- Burn score (burn wounds; Day 2): 2.25
- Burn score (burn wounds; Day 4): 2.64
- Burn score (burn wounds; Day 7): 2.50

- Montelukast amount in skin sample ([3]; 0 h, 1 g montelukast cream topically): 0 g
- Montelukast amount in skin sample ([3]; 1 h): 2.53 g
- Montelukast amount in skin sample ([3]; 2 h): 5.44 g
- Montelukast amount in skin sample ([3]; 3 h): 0.89 g
- Montelukast amount in skin sample ([3]; 6 h): 0.90 g
- Montelukast amount in skin sample ([3]; 8 h): 3.54 g
- time of montelukast peak in skin ([3]; scalded skin): 2 h
- stability of formulation (in words) [4]: surprisingly stable
SMILES: CC(C)(O)c1ccccc1CC[C@@H](SCC1(CC(=O)O)CC1)c1cccc(/C=C/c2ccc3ccc(Cl)cc3n2)c1 [Mon, Montelukast sodium]
- increase of VEGF production in the wounded tissue in comparison with model group [2]: about 74%
- VEGF content, Mean ([2]; wound tissue, rhEGF 100 IU/each, once daily topically): 5.47 pg/g
- Activity score [1]: 1.00
- Fibroblast proliferation score [1]: 0.83
- Inflammation score [1]: 2.17
- Leukocyte count in exudate [1]: 3.82e+06 mL⁻¹
- Lymphocyte count in exudate [1]: 3.22e+06 mL⁻¹
- Monocyte count in exudate [1]: 170000 mL⁻¹
- Neutrophil count in exudate [1]: 290000 mL⁻¹
- Sum (of histology scores) [1]: 5.50
- Edema Score ([1]; listed as MON-O): 1.00
- Fibroblast proliferation score ([1]; listed as MON-O): 0.33
- Leukocyte count in exudate ([1]; listed as MON-O): 2.38e+06 mL⁻¹
- Lymphocyte count in exudate ([1]; listed as MON-O): 1.98e+06 mL⁻¹
- Monocyte count in exudate ([1]; listed as MON-O): 70000 mL⁻¹
- Neutrophil count in exudate ([1]; listed as MON-O): 210000 mL⁻¹
- Sum (of histology scores) ([1]; listed as MON-O): 4.17
- IFN-γ in exudate (ELISA) ([1]; listed as Mon (oral)): 2495 ± 711
- IL-6 in exudate (ELISA) ([1]; listed as Mon (oral)): 8453 ± 9758
- IL-10 in exudate (ELISA) ([1]; listed as Mon (oral)): 52.59 ± 7.22
- TNF-α in exudate (ELISA) ([1]; listed as Mon (oral)): 39.41 ± 17.62
- IFN-γ in exudate (ELISA) ([1]; listed as Mon (topical)): 1690 ± 725
- IL-6 in exudate (ELISA) ([1]; listed as Mon (topical)): 2528 ± 1538
- IL-10 in exudate (ELISA) ([1]; listed as Mon (topical)): 68.18 ± 15.81
- TNF-α in exudate (ELISA) ([1]; listed as Mon (topical)): 90.73 ± 109.02
- Exudate volume [1]: 3.68 ± 0.15 mL
- Pouch Wall Weight [1]: 0.66 ± 0.13 g
- Exudate volume ([1]; listed as MON-O): 3.58 ± 0.15 mL
- Pouch Wall Weight ([1]; listed as MON-O): 0.67 ± 0.10 g
- Burn score (burn wounds; Day 2): 1.50
- Burn score (burn wounds; Day 4): 2.38
- Burn score (burn wounds; Day 7): 2.00
